Results: patent US20050054770A1, “Helicomimetics and stabilized lxxll peptidomimetics” (priority 2001, published 2005)
Positions of bridges follow the written chain, without caps; N, C: chain ends. Non-standard residues stand in square brackets, D forms with d. Residues, ends and D or L forms follow the SMILES beside them. dPen = CC(C)(S)[C@@H](N)C(=O)O; Pen = CC(C)(S)[C@H](N)C(=O)O; d(hCys) = N[C@H](CCS)C(=O)O; hCys = N[C@@H](CCS)C(=O)O

What was measured:
ER beta = ER beta (Homo sapiens, UniProt Q92731); assay: competition binding assay against a model linear peptide sequence (estrogen receptor-coactivator interaction), ER beta; conditions: competition binding assay (Lilly Research Labs); read-out: Ki ER β
Chain of ER beta (Q92731 whole entry): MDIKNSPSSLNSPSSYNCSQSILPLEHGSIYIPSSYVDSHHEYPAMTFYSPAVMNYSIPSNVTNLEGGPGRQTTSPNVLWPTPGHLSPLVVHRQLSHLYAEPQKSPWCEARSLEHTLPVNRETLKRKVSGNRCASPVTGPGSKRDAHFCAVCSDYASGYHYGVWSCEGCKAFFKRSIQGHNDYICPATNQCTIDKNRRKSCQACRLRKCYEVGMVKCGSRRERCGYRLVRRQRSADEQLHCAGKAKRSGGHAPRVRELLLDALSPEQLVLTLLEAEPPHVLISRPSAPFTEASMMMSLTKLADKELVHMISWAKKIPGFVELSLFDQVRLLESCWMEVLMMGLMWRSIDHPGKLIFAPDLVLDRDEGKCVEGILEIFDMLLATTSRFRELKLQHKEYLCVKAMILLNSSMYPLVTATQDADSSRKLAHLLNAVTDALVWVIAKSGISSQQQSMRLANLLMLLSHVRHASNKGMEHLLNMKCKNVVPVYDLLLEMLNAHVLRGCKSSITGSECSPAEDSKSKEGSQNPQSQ
Method: (§1) The synthetic helicormimetic peptides designed as antagonists of the estrogen receptor-coactivator interactions were tested in a competition binding assay (Lilly Research Labs) against a model linear peptide sequence. Activities are reported in the Table below in Ki values, with two of the best analogs labeled as PERM-1 and PERM-2, or Peptidomimetic Estrogen Receptor Modulators.

ER alpha = molecular target: T1, ER alpha (Homo sapiens, UniProt P03372); assay: competition binding assay against a model linear peptide sequence (estrogen receptor-coactivator interaction), ER alpha; conditions: competition binding assay (Lilly Research Labs); read-out: Ki ER α
T1 sequence (P03372 1-595): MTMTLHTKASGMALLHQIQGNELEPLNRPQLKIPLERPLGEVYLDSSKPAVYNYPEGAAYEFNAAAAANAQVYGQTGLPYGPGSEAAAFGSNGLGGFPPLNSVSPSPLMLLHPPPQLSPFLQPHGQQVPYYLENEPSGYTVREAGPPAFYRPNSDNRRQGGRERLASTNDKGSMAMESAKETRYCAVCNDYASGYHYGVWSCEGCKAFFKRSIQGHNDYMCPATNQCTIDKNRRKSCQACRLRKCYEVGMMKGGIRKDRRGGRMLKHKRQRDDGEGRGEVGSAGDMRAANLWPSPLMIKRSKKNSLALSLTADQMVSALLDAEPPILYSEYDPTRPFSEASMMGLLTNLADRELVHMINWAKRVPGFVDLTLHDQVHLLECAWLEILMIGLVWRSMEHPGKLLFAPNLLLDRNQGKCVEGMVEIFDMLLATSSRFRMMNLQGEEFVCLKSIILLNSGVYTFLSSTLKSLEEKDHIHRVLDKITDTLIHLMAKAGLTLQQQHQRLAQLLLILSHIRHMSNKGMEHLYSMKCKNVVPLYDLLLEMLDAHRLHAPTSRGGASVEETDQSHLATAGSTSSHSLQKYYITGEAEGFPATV
Method: as §1

Row | SMILES | Ki (ER beta) [µM] | Ki (ER alpha) [µM]
1 | CC[C@H](C)[C@@H]1NC(=O)[C@@H](NC(=O)[C@@H](N)CCCCN)CSC[C@@H](C(=O)N[C@@H](CCCNC(=N)N)C(=O)N[C@@H](CC(C)C)C(=O)N[C@@H](CC(C)C)C(=O)N[C@@H](CCC(N)=O)C(N)=O)NC(=O)[C@H](CC(C)C)NC1=O [AKG-I-39, H-Lys-cyclo (Ala-Ile-Leu-Ala)- Arg-Leu-Leu-Gln-NH2, Lanthionine] | 15.4 | 1.18
2 | CC[C@H](C)[C@@H]1NC(=O)[C@H](NC(=O)[C@H](CC(C)C)NC(=O)[C@H](CC(C)C)NC(=O)[C@@H](N)CCCCN)CSSC[C@@H](C(=O)N[C@@H](CCCNC(=N)N)C(=O)N[C@@H](CC(C)C)C(=O)N[C@@H](CC(C)C)C(=O)N[C@@H](CCC(N)=O)C(N)=O)NC(=O)[C@H](CC(C)C)NC1=O [AKG-I-46, H-Lys-Leu-Leu-cyclo(D-Cys-Ile-Leu-Cys)-Arg-Leu-Leu-Gln-NH2] (H-KLL[dC]ILCRLLQ-NH2; disulfide 4-7) | 2 | 0.398
3 | CC[C@H](C)[C@@H]1NC(=O)[C@H](CC(C)C)NC(=O)[C@@H](NC(=O)[C@@H](N)CCCCN)CSSC[C@H](C(=O)N[C@@H](CCCNC(=N)N)C(=O)N[C@@H](CC(C)C)C(=O)N[C@@H](CC(C)C)C(=O)N[C@@H](CCC(N)=O)C(N)=O)NC1=O [AKG-I-59, H-Lys-cyclo(Cys-Leu-Ile-D-Cys)-Arg-Leu-Leu-Gln-NH2] (H-KCLI[dC]RLLQ-NH2; disulfide 2-5) | 17 | 2.1
4 | CC[C@H](C)[C@@H]1NC(=O)[C@@H](NC(=O)[C@@H](N)CCCCN)CSSC[C@H](C(=O)N[C@@H](CCCNC(=N)N)C(=O)N[C@@H](CC(C)C)C(=O)N[C@@H](CC(C)C)C(=O)N[C@@H](CCC(N)=O)C(N)=O)NC(=O)[C@H](CC(C)C)NC1=O [AKG-I-60, H-Lys-cyclo(Cys-Ile-Leu-D-Cys)-Arg-Leu-Leu-Gln-NH2] (H-KCIL[dC]RLLQ-NH2; disulfide 2-5) | 7.2 | 2.4
5 | CC[C@H](C)[C@@H]1NC(=O)[C@H](NC(=O)[C@@H](N)CCCCN)CSSC[C@H](C(=O)N[C@@H](CCCNC(=N)N)C(=O)N[C@@H](CC(C)C)C(=O)N[C@@H](CC(C)C)C(=O)N[C@@H](CCC(N)=O)C(N)=O)NC(=O)[C@H](CC(C)C)NC1=O [AKG-I-61, H-Lys-cyclo(D-Cys-Ile-Leu-D-Cys)-Arg-Leu-Leu-Gln-NH2] (H-K[dC]IL[dC]RLLQ-NH2; disulfide 2-5) | 3.9 | 0.928
6 | CC(C)C[C@H](NC(=O)[C@H](CC(C)C)NC(=O)[C@H](CCCNC(=N)N)NC(=O)[C@H]1CSSC[C@H](NC(=O)[C@@H](N)CCCCN)C(=O)N[C@@H](CC(C)C)C(=O)N1)C(=O)N[C@@H](CCC(N)=O)C(N)=O [AKG-I-63, H-Lys-cyclo(Cys-Leu-D-Cys)-Arg-Leu-Leu-Gln-NH2] (H-KCL[dC]RLLQ-NH2; disulfide 2-4) | 7.9 | 2.2
7 | CC(C)C[C@H](NC(=O)[C@H](CC(C)C)NC(=O)[C@H](CCCNC(=N)N)NC(=O)[C@H]1CSSC[C@@H](NC(=O)[C@@H](N)CCCCN)C(=O)N[C@@H](CC(C)C)C(=O)N1)C(=O)N[C@@H](CCC(N)=O)C(N)=O [AKG-I-64, H-Lys-cyclo(D-Cys-Leu-D-Cys)-Arg-Leu-Leu-Gln-NH2] (H-K[dC]L[dC]RLLQ-NH2; disulfide 2-4) | 5.2 | 1.8
8 | CC[C@H](C)[C@@H]1NC(=O)[C@H](NC(=O)[C@@H](N)CCCNC(=N)N)CSSC(C)(C)[C@@H](C(=O)N[C@@H](CCCNC(=N)N)C(=O)N[C@@H](CC(C)C)C(=O)N[C@@H](CC(C)C)C(=O)N[C@@H](CCC(N)=O)C(N)=O)NC(=O)[C@H](CC(C)C)NC1=O [AKG-II-10, H-Arg-cyclo (D-Cys-Ile-Leu-Pen)-Arg-Leu-Leu-Gln-NH2] (H-R[dC]IL[Pen]RLLQ-NH2; disulfide 2-5) | 1.91 | 0.088
9 | CC(C)C[C@H](NC(=O)[C@H](CC(C)C)NC(=O)[C@H](CCC(N)=O)NC(=O)[C@H](CCC(=O)O)NC(=O)[C@H](CC(C)C)NC(=O)CC1O[C@H](CO)[C@@H](O)[C@H](O)[C@@H]1O)C(=O)O (stereo partly drawn) [AML-I-31, Mannosylacetvl-Leu-Glu-Gln-Leu-Leu-OH] | 339 | –

Continued, values first:

Row | Ki (ER beta) [µM] | Ki (ER alpha) [µM] | SMILES
10 | 1.9 | 0.22 | CC[C@H](C)[C@@H]1NC(=O)[C@H](NC(=O)[C@H](N)CCCCN)CSSC[C@@H](C(=O)N[C@@H](CCCNC(=N)N)C(=O)N[C@@H](CC(C)C)C(=O)N[C@@H](CC(C)C)C(=O)N[C@@H](CCC(N)=O)C(N)=O)NC(=O)[C@H](CC(C)C)NC1=O [AKG-I-28, H-D-Lys-cyclo (D-Cys-Ile-Leu-Cys)-Arg-Leu-Leu-Gln-NH2] (H-[dK][dC]ILCRLLQ-NH2; disulfide 2-5)
11 | 0.077 | 0.011 | CC[C@H](C)[C@@H]1NC(=O)[C@H](NC(=O)[C@@H](N)CCCNC(=N)N)CSSC[C@@H](C(=O)N[C@@H](CCCNC(=N)N)C(=O)N[C@@H](CC(C)C)C(=O)N[C@@H](CC(C)C)C(=O)N[C@@H](CCC(N)=O)C(N)=O)NC(=O)[C@H](CC(C)C)NC1=O [AKG-I-50, H-Arg-cyclo(D-Cys-Ile-Leu-Cys)-Arg-Leu-Leu-Gln-NH2] (H-R[dC]ILCRLLQ-NH2; disulfide 2-5)
12 | 0.216 | 0.013 | CC[C@H](C)[C@@H]1NC(=O)[C@H](CC(C)C)NC(=O)[C@H](NC(=O)[C@@H](N)CCCNC(=N)N)CSSC[C@@H](C(=O)N[C@@H](CCCNC(=N)N)C(=O)N[C@@H](CC(C)C)C(=O)N[C@@H](CC(C)C)C(=O)N[C@@H](CCC(N)=O)C(N)=O)NC1=O [AKG-II-1, H-Arg-cyclo (D-Cys-Leu-Ile-Cys)-Arg-Leu-Leu-Gln-NH2] (H-R[dC]LICRLLQ-NH2; disulfide 2-5)
13 | 0.214 | 0.013 | CC[C@H](C)[C@@H]1NC(=O)[C@H](NC(=O)[C@@H](N)CCCNC(=N)N)CSSCC[C@@H](C(=O)N[C@@H](CCCNC(=N)N)C(=O)N[C@@H](CC(C)C)C(=O)N[C@@H](CC(C)C)C(=O)N[C@@H](CCC(N)=O)C(N)=O)NC(=O)[C@H](CC(C)C)NC1=O [AKG-II-3, H-Arg-cyclo (D-Cys-Ile-Leu-HomoCys)-Arg-Leu-Leu-Gln-NH2] (H-R[dC]IL[hCys]RLLQ-NH2; disulfide 2-5)
14 | 0.591 | 0.035 | CC[C@H](C)[C@@H]1NC(=O)[C@H](NC(=O)[C@@H](N)CCCNC(=N)N)CCSSC[C@@H](C(=O)N[C@@H](CCCNC(=N)N)C(=O)N[C@@H](CC(C)C)C(=O)N[C@@H](CC(C)C)C(=O)N[C@@H](CCC(N)=O)C(N)=O)NC(=O)[C@H](CC(C)C)NC1=O [AKG-II-4, H-Arg-cyclo (DHomoCys-lIe-Leu-Cys)- Arg-Leu-Leu-Gln-NH2] (H-R[d(hCys)]ILCRLLQ-NH2; disulfide 2-5)
15 | 1.16 | 0.174 | CC[C@H](C)[C@@H]1NC(=O)[C@@H](NC(=O)[C@@H](N)CCCNC(=N)N)CSSC[C@@H](C(=O)N[C@@H](CC(C)C)C(=O)N[C@@H](CC(C)C)C(=O)N[C@@H](CCC(N)=O)C(N)=O)NC(=O)[C@H](CCCNC(=N)N)NC(=O)[C@H](CC(C)C)NC1=O [AKG-II-8, H-Arg-cyclo (Cys-Ile-Leu-Arg-Cys)-Leu-Leu-Gln-NH2] (H-RCILRCLLQ-NH2; disulfide 2-6)
16 | 0.933 | 0.168 | CC[C@H](C)[C@@H]1NC(=O)[C@H](NC(=O)[C@@H](N)CCCNC(=N)N)C(C)(C)SSC[C@@H](C(=O)N[C@@H](CCCNC(=N)N)C(=O)N[C@@H](CC(C)C)C(=O)N[C@@H](CC(C)C)C(=O)N[C@@H](CCC(N)=O)C(N)=O)NC(=O)[C@H](CC(C)C)NC1=O [AKG-II-9, H-Arg-cyclo (D-Pen-Ile-Leu-Cys)-Arg-Leu-Leu-Gln-NH2] (H-R[dPen]ILCRLLQ-NH2; disulfide 2-5)
